Source: patent US4785017A, “3,4-dihydro-2H-1-benzopyran derivatives” (Hoffmann-La Roche Inc., priority 1984, dated 1988)

System: leukotriene D4 induced bronchoconstriction
Experiment: Oral Testing of Leukotriene Antagonists, leukotriene D4 challenge
Format: in vivo, guinea pig (Hartley strain, Charles River)
Conditions: 10 mg/kg by the oral route, two hours prior to challenge with leukotriene D4
Protocol: (c) Oral Testing of Leukotriene Antagonists
Male guinea pigs (Hartley strain, Charles River) weighing 400 to 600 g were anesthetized with urethane (2 g/kg) intraperitoneally and a polyethylene cannula was inserted into the jugular vein for intravenous drug administration. Tracheal pressure (cm water) was recorded from a Statham pressure transducer. After surgical preparation of the animals, a period of time was allowed for spontaneous breathing to stabilize. […] Two minutes later, spontaneous breathing was arrested with succinylcholine chloride (1.2 mg/kg, i.v.) and the animals ventilated with a Harvard (Model #680) small animal respirator set at 40 breaths per minute and 4.0 cc stroke volume. The animals were challenged with a maximum constrictory does of either leukotriene C4 or leukotriene D4 or leukotriene E4 (25 ug/kg, i.v.) at 5 minutes. Control vehicle or test drug (adjusted to an alkaline pH where necessary for drug solubilization) was administered (10 mg/kg, p.o.) two hours prior to challenge with leukotriene. In order to determine the ID50 for a test drug, the dose is varied from 10 mg/kg, p.o. to 100, 50, 30, 20, 5, 3 and 1 mg/kg, p.o.
In order to determine oral duration of action, the time between exposure to test drug and challenge with leukotriene is varied.

CCCc1c(OCCCCCOc2cc3c(cc2C(C)=O)CCC(CCCCC(=O)O)O3)ccc(C(C)=O)c1O (racemic) [racemic-6-acetyl-7-[5-(4-acetyl-3-hydroxy-2-propylphenoxy)pentyloxy]-3,4-dihydro-2H-1-benzopyran-2-pentanoic acid]
inhibition of leukotriene D4 induced bronchoconstriction: 46±14%
